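96-well plates; 48 h exposure; 5 concentrations. Endpoints by linear interpolation between flanking doses. Not reached: highest tested concentration assigned. TGI is the concentration that stops growth completely.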

Among the test systems are U251 CNS; SK-MEL-5 melanoma; SF-539 CNS; KM12 colon; SK-OV-3 ovarian; UACC-62 melanoma; EKVX NSCLC; HT29 colon; MCF7 breast; CCRF-CEM leukemia; MDA-N; SW-620 colon; MDA-MB-231 breast; SNB-19 CNS; NCI-H522 lung; HCC-2998 colon; OVCAR-8 ovarian; UACC-257 melanoma; SK-MEL-28 melanoma; T-47D breast.
Experiment in all cases: NCI anticancer screen, dose series, 48 h

For `O=CC(=C(I)I)c1ccccc1`, the TGI in the assay with U251 CNS was determined as 14.5 µM; in the assay with SK-MEL-5 melanoma, 14 µM; in the assay with SF-539 CNS it was 5.17 µM; in the assay on KM12 colon, 12.7 µM; in the assay with SK-OV-3 ovarian, 29.9 µM; with UACC-62 melanoma, 17.5 µM. In addition, the TGI in the assay on EKVX NSCLC is 36.9 µM; with HT29 colon, above 32.5 µM; with MCF7 breast, 16.2 µM; in the assay on CCRF-CEM leukemia, 0.65 µM; in the assay with MDA-N, 4.81 µM; in the assay with SW-620 colon, 2.17 µM. Besides, the TGI came to 5.57 µM in the assay with MDA-MB-231 breast; 21.1 µM in the assay on SNB-19 CNS; 4.06 µM in the assay with NCI-H522 lung; 26.4 µM with HCC-2998 colon; 6.95 µM in the assay on OVCAR-8 ovarian; 8.05 µM in the assay on UACC-257 melanoma. Moreover, the values for the TGI in the assay with SK-MEL-28 melanoma and with T-47D breast were 7.36 µM and 9.18 µM, respectively.

Take `O=[N+]([O-])C(C(Cl)=C(Cl)Cl)=C(N(Cc1ccccc1)Cc1ccccc1)N(Cc1ccccc1)Cc1ccccc1`: the TGI in the assay on U251 CNS was above 100 µM; in the assay on SK-MEL-5 melanoma, above 100 µM; in the assay on SF-539 CNS, 76.6 µM; in the assay with KM12 colon, above 100 µM; with SK-OV-3 ovarian it was above 100 µM; with UACC-62 melanoma it was above 100 µM. The TGI is above 100 µM in the assay with EKVX NSCLC; above 100 µM in the assay on HT29 colon; above 100 µM in the assay on MCF7 breast; 60.6 µM in the assay with CCRF-CEM leukemia; above 100 µM in the assay on MDA-N; above 100 µM with SW-620 colon. In addition, the TGI is above 100 µM in the assay with MDA-MB-231 breast; above 100 µM with SNB-19 CNS; above 100 µM with NCI-H522 lung; 55.4 µM with HCC-2998 colon; above 100 µM in the assay on OVCAR-8 ovarian; above 100 µM in the assay on UACC-257 melanoma. In addition, the TGI with SK-MEL-28 melanoma and in the assay on T-47D breast was above 100 µM throughout.

In the case of `O=c1c2nn3c(=O)n(-c4ccccc4)c(=O)c3nn2c(=O)n1-c1ccccc1`, the TGI in the assay with U251 CNS, in the assay on SK-MEL-5 melanoma, in the assay on SF-539 CNS, in the assay with KM12 colon, in the assay with SK-OV-3 ovarian and in the assay on UACC-62 melanoma was above 100 µM throughout. Besides, the TGI in the assay on EKVX NSCLC, with HT29 colon, in the assay on MCF7 breast, with CCRF-CEM leukemia, in the assay with MDA-N and in the assay with SW-620 colon was above 100 µM each time. In addition, the TGI with MDA-MB-231 breast, in the assay with SNB-19 CNS, in the assay on NCI-H522 lung, with HCC-2998 colon, in the assay on OVCAR-8 ovarian and in the assay on UACC-257 melanoma was above 100 µM in each case. For the same compound, the TGI with SK-MEL-28 melanoma and in the assay on T-47D breast was above 100 µM each time.

Consider `CC(=O)NC(CS/N=N/c1nc[nH]c1C(N)=O)C(=O)O` (stereo not given), for which the TGI in the assay on U251 CNS was above 100 µM; in the assay on SK-MEL-5 melanoma it was above 100 µM; in the assay with SF-539 CNS, above 100 µM; in the assay with KM12 colon, above 45.3 µM; in the assay with SK-OV-3 ovarian it was above 100 µM; in the assay on UACC-62 melanoma, above 100 µM. For the same compound, the TGI with EKVX NSCLC is above 100 µM; with HT29 colon it was above 100 µM; with MCF7 breast it was above 100 µM; with CCRF-CEM leukemia, above 23.1 µM; with MDA-N, above 100 µM; in the assay with SW-620 colon, above 100 µM. Moreover, the TGI is above 27.8 µM with MDA-MB-231 breast; above 100 µM in the assay on SNB-19 CNS; above 100 µM in the assay with NCI-H522 lung; above 27.9 µM in the assay on HCC-2998 colon; above 100 µM in the assay with OVCAR-8 ovarian; above 100 µM in the assay on UACC-257 melanoma. Further, the TGI in the assay with SK-MEL-28 melanoma and in the assay on T-47D breast was above 100 µM each time.

On to `CCOC(=O)N/N=C(/OCC)c1ccccc1`, for which the TGI in the assay with U251 CNS, in the assay on SK-MEL-5 melanoma, in the assay with SF-539 CNS, in the assay with KM12 colon, in the assay on SK-OV-3 ovarian and in the assay with UACC-62 melanoma was above 100 µM throughout. For the same compound, the TGI with EKVX NSCLC, in the assay on HT29 colon, in the assay on MCF7 breast, in the assay on CCRF-CEM leukemia, with MDA-N and in the assay on SW-620 colon was above 100 µM in each case. In addition, the TGI in the assay with MDA-MB-231 breast, in the assay with SNB-19 CNS, with NCI-H522 lung, in the assay on HCC-2998 colon, in the assay with OVCAR-8 ovarian and in the assay on UACC-257 melanoma was above 100 µM throughout. The TGI in the assay on SK-MEL-28 melanoma and with T-47D breast was above 100 µM each time.

As to `O=c1cc(NNc2ccccc2)[nH]c(=S)[nH]1`, the TGI in the assay with U251 CNS, with SK-MEL-5 melanoma, in the assay with SF-539 CNS, in the assay with KM12 colon, with SK-OV-3 ovarian and in the assay on UACC-62 melanoma was above 100 µM in each case. Also, the TGI is above 100 µM in the assay on EKVX NSCLC; above 100 µM in the assay with HT29 colon; above 100 µM with MCF7 breast; 88.6 µM in the assay with CCRF-CEM leukemia; above 100 µM with MDA-N; 49.5 µM in the assay with SW-620 colon. Moreover, the TGI in the assay with MDA-MB-231 breast was 65.2 µM; in the assay on SNB-19 CNS, above 100 µM; in the assay with NCI-H522 lung, 35.7 µM; in the assay on HCC-2998 colon, 50.5 µM; in the assay with OVCAR-8 ovarian, above 100 µM; in the assay on UACC-257 melanoma, above 100 µM. Besides, the TGI in the assay with SK-MEL-28 melanoma and with T-47D breast was above 100 µM in each case.
